Source: the NIST ThermoML archive (doi:10.1016/j.jct.2018.08.013)
Several values for one entry are separate records, joined by “and”; a condition that tells them apart may be missing. Equal values may be shown once. Numbers after ± are expanded uncertainties.

Key:
[1] = xn = mol fraction of the nth substance listed; conditions: 298 K; 100 kPa; Crystal of intercomponent compound 1; X-ray diffraction; x2 = 0.501
[2] = specific heat capacity at constant pressure; xn = mol fraction of the nth substance listed; conditions: 100 kPa, Crystal of intercomponent compound 1, relaxation calorimetry, x2 = 0.501

[Se] [selenium] + [Ga]
mass density [1]: 4995 ± 33 kg/m3 | specific heat capacity ([2]; 16.15 K): 11.99 ± 0.98 J/K/kg | specific heat capacity ([2]; 16.17 K): 12 ± 0.98 J/K/kg | specific heat capacity ([2]; 18.16 K): 16.65 ± 1.2 J/K/kg and 16.64 ± 1.2 J/K/kg | specific heat capacity ([2]; 18.18 K): 16.69 ± 1.2 J/K/kg | specific heat capacity ([2]; 20.17 K): 21.87 ± 1.4 J/K/kg | specific heat capacity ([2]; 20.18 K): 21.87 ± 1.4 J/K/kg | specific heat capacity ([2]; 20.19 K): 21.91 ± 1.4 J/K/kg | specific heat capacity ([2]; 22.2 K): 27.43 ± 1.6 J/K/kg and 27.5 ± 1.6 J/K/kg | specific heat capacity ([2]; 22.21 K): 27.42 ± 1.6 J/K/kg | specific heat capacity ([2]; 24.22 K): 33.32 ± 1.8 J/K/kg and 33.29 ± 1.8 J/K/kg | specific heat capacity ([2]; 24.23 K): 33.28 ± 1.8 J/K/kg | specific heat capacity ([2]; 26.23 K): 39.37 ± 2 J/K/kg and 39.38 ± 2 J/K/kg | specific heat capacity ([2]; 26.24 K): 39.4 ± 2 J/K/kg | specific heat capacity ([2]; 28.25 K): 45.37 ± 2.2 J/K/kg and 45.38 ± 2.2 J/K/kg and 45.39 ± 2.2 J/K/kg | specific heat capacity ([2]; 30.27 K): 51.28 ± 2.4 J/K/kg and 51.24 ± 2.4 J/K/kg | specific heat capacity ([2]; 30.28 K): 51.39 ± 2.4 J/K/kg | specific heat capacity ([2]; 35.31 K): 66.34 ± 2.9 J/K/kg and 66.36 ± 2.9 J/K/kg and 66.53 ± 2.9 J/K/kg | specific heat capacity ([2]; 40.35 K): 80.84 ± 3.5 J/K/kg and 80.98 ± 3.5 J/K/kg and 81.11 ± 3.5 J/K/kg | specific heat capacity ([2]; 45.38 K): 95.31 ± 4 J/K/kg | specific heat capacity ([2]; 45.39 K): 94.97 ± 4 J/K/kg | specific heat capacity ([2]; 45.4 K): 95.04 ± 4 J/K/kg | specific heat capacity ([2]; 50.4 K): 109.56 ± 4.6 J/K/kg | specific heat capacity ([2]; 50.42 K): 108.96 ± 4.6 J/K/kg | specific heat capacity ([2]; 50.44 K): 108.89 ± 4.6 J/K/kg | specific heat capacity ([2]; 55.43 K): 122.81 ± 5.1 J/K/kg | specific heat capacity ([2]; 55.45 K): 122.01 ± 5 J/K/kg | specific heat capacity ([2]; 55.49 K): 122.14 ± 5 J/K/kg | specific heat capacity ([2]; 60.46 K): 135.73 ± 5.6 J/K/kg | specific heat capacity ([2]; 60.49 K): 134.99 ± 5.6 J/K/kg | specific heat capacity ([2]; 60.52 K): 134.92 ± 5.6 J/K/kg | specific heat capacity ([2]; 65.48 K): 148.37 ± 6.1 J/K/kg | specific heat capacity ([2]; 65.53 K): 147.43 ± 6.1 J/K/kg | specific heat capacity ([2]; 65.58 K): 147.3 ± 6.1 J/K/kg | specific heat capacity ([2]; 70.5 K): 160.95 ± 6.6 J/K/kg | specific heat capacity ([2]; 70.57 K): 159.6 ± 6.6 J/K/kg | specific heat capacity ([2]; 70.63 K): 159.47 ± 6.5 J/K/kg | specific heat capacity ([2]; 75.53 K): 172.38 ± 7.1 J/K/kg | specific heat capacity ([2]; 75.61 K): 170.97 ± 7 J/K/kg | specific heat capacity ([2]; 75.66 K): 170.77 ± 7 J/K/kg | specific heat capacity ([2]; 80.55 K): 184.09 ± 7.5 J/K/kg | specific heat capacity ([2]; 80.66 K): 182.27 ± 7.5 J/K/kg | specific heat capacity ([2]; 80.7 K): 182.34 ± 7.5 J/K/kg | specific heat capacity ([2]; 85.57 K): 194.78 ± 7.9 J/K/kg | specific heat capacity ([2]; 85.7 K): 192.56 ± 7.9 J/K/kg | specific heat capacity ([2]; 85.74 K): 192.9 ± 7.9 J/K/kg | specific heat capacity ([2]; 90.59 K): 204.73 ± 8.3 J/K/kg | specific heat capacity ([2]; 90.72 K): 202.45 ± 8.3 J/K/kg | specific heat capacity ([2]; 90.78 K): 202.18 ± 8.3 J/K/kg | specific heat capacity ([2]; 95.61 K): 213.21 ± 8.7 J/K/kg | specific heat capacity ([2]; 95.73 K): 211.33 ± 8.6 J/K/kg | specific heat capacity ([2]; 95.82 K): 210.32 ± 8.5 J/K/kg | specific heat capacity ([2]; 100.79 K): 218.86 ± 8.9 J/K/kg and 218.59 ± 8.9 J/K/kg | specific heat capacity ([2]; 100.93 K): 219.87 ± 8.9 J/K/kg | specific heat capacity ([2]; 105.73 K): 227.87 ± 9.3 J/K/kg | specific heat capacity ([2]; 105.8 K): 226.59 ± 9.2 J/K/kg | specific heat capacity ([2]; 105.86 K): 225.85 ± 9.2 J/K/kg | specific heat capacity ([2]; 113.65 K): 238.83 ± 9.7 J/K/kg | specific heat capacity ([2]; 113.74 K): 237.36 ± 9.7 J/K/kg | specific heat capacity ([2]; 113.8 K): 236.08 ± 9.6 J/K/kg | specific heat capacity ([2]; 121.58 K): 248.59 ± 10 J/K/kg | specific heat capacity ([2]; 121.67 K): 246.97 ± 10 J/K/kg | specific heat capacity ([2]; 121.74 K): 245.83 ± 10 J/K/kg | specific heat capacity ([2]; 129.51 K): 257.33 ± 10 J/K/kg | specific heat capacity ([2]; 129.61 K): 255.45 ± 10 J/K/kg | specific heat capacity ([2]; 129.66 K): 254.51 ± 10 J/K/kg | specific heat capacity ([2]; 137.44 K): 264.59 ± 11 J/K/kg | specific heat capacity ([2]; 137.56 K): 262.58 ± 11 J/K/kg and 263.32 ± 11 J/K/kg | specific heat capacity ([2]; 145.45 K): 269.91 ± 11 J/K/kg | specific heat capacity ([2]; 145.46 K): 268.03 ± 11 J/K/kg
